Common to all, as to assay: DTP human tumour cell line panel, 48 h
Experiment [1] has as its system SK-OV-3 ovarian.
Experiment [2] deals with PC-3 prostate.
In experiment [3] the test system is A549 NSCLC.
In experiment [4] the test system is OVCAR-4 ovarian.
Experiment [5] has as its system MDA-MB-435.
In experiment [6] the test system is MOLT-4 leukemia.
For experiment [7], the system named is NCI-H460 lung.
Experiment [8] relates to 786-0 renal.
In experiment [9] the test system is SK-MEL-28 melanoma.
Experiment [10] concerns SF-539 CNS.

“And” between values parts separate entries of the source, which are not always exact repeats. Identical values can stand only once.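 1) Cells in 96-well plates. 2) Compound, 48 h, 5 concentrations. 3) Linear interpolation between surrounding doses. 4) Unreached endpoint = highest concentration. Here, GI50 denotes the concentration required for 50% inhibition of growth. TGI: concentration producing complete growth inhibition.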 A value given as a limit tells only on which side of the number the result lay.

For the molecule `COc1cc(-c2cc(-c3cccs3)c(C#N)c(N3CCOCC3)n2)cc(OC)c1OC`, the GI50 (usually the concentration that inhibits growth by half) was greater than 50.3 µM in [1]; 5.29 µM in [2]; 44.1 µM in [3]; greater than 44.6 µM in experiment [4]; greater than 47.9 µM in [5]; 4.09 µM in experiment [6]. Further, the GI50 in experiment [7] was 3.06 µM; in experiment [8], 1.82 µM; in experiment [9] it was 3.83 µM; in experiment [10], 5.06 µM. The TGI in [1], in experiment [2], in experiment [3], in experiment [4], in experiment [5] and in experiment [6] was greater than 100 µM throughout. Besides, the total growth inhibition concentration (TGI) (in general, the concentration at which net growth stops) was greater than 28.5 µM in experiment [7], 7.94 µM in experiment [8], 97.2 µM in experiment [9] and greater than 100 µM in experiment [10].
As to `C=C1C[C@@H](O)[C@@H](Br)C(C)(C)[C@]12CCC(C)(Br)C(Cl)C2` (stereo not given in full), the GI50 was 24 µM in experiment [1]; 0.107 µM in experiment [2]; 16.7 µM in experiment [3]; 15.7 µM in experiment [4]; 18 µM in experiment [5]; 14.2 µM in experiment [6]. Moreover, the GI50 in experiment [7] was 18 µM; in experiment [8], 17.9 µM; in experiment [9], 18 µM; in experiment [10] it was 16.9 µM. For the same molecule, the total growth inhibition concentration (TGI) in experiment [1] is > 50 µM and 64.6 µM; in experiment [2], 10.8 µM and 2.29 µM; in experiment [3] it was > 50 µM and 37.7 µM; in experiment [4], > 50 µM and 32.9 µM; in experiment [5] it was > 50 µM and 35.8 µM; in experiment [6], > 50 µM and 34.5 µM. The total growth inhibition concentration (TGI) in [7] was > 50 µM and 32.4 µM; in [8] it was > 50 µM and 33.7 µM; in experiment [9], > 50 µM and 36.8 µM; in experiment [10] it was > 50 µM and 31.2 µM.
As to `COc1ccc2nc3cc(Cl)ccc3c(NCCNCC(O)CO)c2c1` (stereo not given), the GI50 in experiment [1] was 2.43 µM; in [2], 2.34 µM; in experiment [3], 3.33 µM; in experiment [4] it was 1.35 µM; in experiment [5], 1.44 µM; in [6], 0.408 µM. Also, the GI50 in [7] is 0.631 µM; in experiment [8], 2.34 µM; in [9] it was 2.19 µM; in experiment [10], 1.23 µM. The TGI in experiment [1] came out at 7.95 µM; in experiment [2], 10.7 µM; in experiment [3], 14.1 µM; in [4], 9.15 µM; in experiment [5], 4.61 µM; in experiment [6], 10.7 µM. The concentration for total growth inhibition (TGI) came out at 3.33 µM in [7], 12.3 µM in experiment [8], 5.43 µM in experiment [9] and 9.14 µM in experiment [10].
`COC(=O)[C@H](Cc1ccccc1)NNC(=O)c1csc([C@@H](C[C@H](C(C)C)N(C)C(=O)[C@@H](NC(=O)[C@H]2CCCCN2C)C2CC2)OC(C)=O)n1`: the GI50 in experiment [1] is 0.48 µM and 1 µM; in experiment [5], 0.00165 µM and 0.0151 µM; in experiment [10], 0.00648 µM and 0.0315 µM. Further, the TGI in [1] is greater than 100 µM; in [2], 25 µM and > 100 µM; in experiment [3], 25 µM and > 100 µM; in experiment [4], 25 µM and > 100 µM; in experiment [6], 25 µM and > 100 µM; in [7] it was 25 µM and > 100 µM. Further, the concentration for total growth inhibition (TGI) in [8] is 25 µM and > 100 µM; in experiment [9], 25 µM and > 100 µM; in experiment [10], 0.0564 µM and 0.461 µM.
As to `Nc1nc(=S)c2ncn(C3OC(CO)C(O)C3O)c2[nH]1` (stereo not given), the GI50 in experiment [1] is 0.379 µM; in experiment [2], 2.34 µM; in experiment [3] it was 3.69 µM; in experiment [4], 1.86 µM; in [5], 1.02 µM; in experiment [6], 0.433 µM. The GI50 in [7] was 0.571 µM; in experiment [8] it was 0.348 µM; in [9], 13.7 µM; in [10], 0.745 µM. Also, the TGI in experiment [1] was 7.76 µM; in experiment [2] it was greater than 100 µM; in experiment [3] it was greater than 33.6 µM; in experiment [4], greater than 100 µM; in experiment [5] it was greater than 69.6 µM; in experiment [6], 10.3 µM. Further, the TGI is 12.2 µM in experiment [7], greater than 100 µM in [9] and greater than 79.2 µM in [10].
Turning to `COC(=O)CC1C2(C)C3=C(C)C(c4ccoc4)CC3OC2C2OC(=O)C3(C)C=CC(=O)C1(C)C23` (stereo not given), the TGI in [1] amounted to 14.9 µM; in experiment [2], 3.43 µM; in experiment [3], 11.4 µM; in [4], 10.1 µM; in experiment [5], 2.69 µM; in experiment [6] it was 1.77 µM. Moreover, the total growth inhibition concentration (TGI) in experiment [7] is 3.26 µM; in [8], 2.34 µM; in experiment [9], 2.66 µM; in experiment [10] it was 3.03 µM.
`CC(=O)NC(CS)C(=O)O` (stereo not given): the GI50 in experiment [1], in [2], in experiment [3], in experiment [4], in [5] and in [6] was greater than 100 µM throughout. Moreover, the GI50 in experiment [8], in experiment [9] and in experiment [10] was greater than 100 µM in each case. The total growth inhibition concentration (TGI) was greater than 100 µM in experiment [1]; greater than 100 µM in experiment [2]; > 100 µM and 69600 µM in experiment [3]; greater than 100 µM in [4]; > 100 µM and 61900 µM in experiment [5]; greater than 100 µM in experiment [6]. Further, the TGI in experiment [7] was 62300 µM; in [8], > 100 µM and 58100 µM; in experiment [9], greater than 100 µM; in [10] it was greater than 100 µM.
On to `CCOC(=O)Nc1ccc2nc(N3CCCCCC3)sc2c1`, for which the GI50 was 2.36 µM in experiment [1]; 3.49 µM in experiment [2]; 3.32 µM in experiment [3]; 23.7 µM in experiment [4]; 0.204 µM in [5]; 3.47 µM in [6]. The GI50 in experiment [7] was 1.4 µM; in experiment [8], 6.86 µM; in experiment [9] it was 7.14 µM; in experiment [10] it was 1.59 µM. Also, the total growth inhibition concentration (TGI) is greater than 72.8 µM in [1]; greater than 100 µM in experiment [2]; greater than 100 µM in [3]; greater than 100 µM in experiment [4]; 0.567 µM in experiment [5]; greater than 92.9 µM in experiment [6]. The TGI in experiment [7] was greater than 38.7 µM; in experiment [8], greater than 100 µM; in experiment [9] it was greater than 91.7 µM; in experiment [10], greater than 27.4 µM.
